Each structure is given as a SMILES string. Some results are limits rather than exact numbers.

Assay [1] concerns the target T1, Androgen receptor (Homo sapiens, UniProt P10275).
T1 sequence (P10275 whole entry): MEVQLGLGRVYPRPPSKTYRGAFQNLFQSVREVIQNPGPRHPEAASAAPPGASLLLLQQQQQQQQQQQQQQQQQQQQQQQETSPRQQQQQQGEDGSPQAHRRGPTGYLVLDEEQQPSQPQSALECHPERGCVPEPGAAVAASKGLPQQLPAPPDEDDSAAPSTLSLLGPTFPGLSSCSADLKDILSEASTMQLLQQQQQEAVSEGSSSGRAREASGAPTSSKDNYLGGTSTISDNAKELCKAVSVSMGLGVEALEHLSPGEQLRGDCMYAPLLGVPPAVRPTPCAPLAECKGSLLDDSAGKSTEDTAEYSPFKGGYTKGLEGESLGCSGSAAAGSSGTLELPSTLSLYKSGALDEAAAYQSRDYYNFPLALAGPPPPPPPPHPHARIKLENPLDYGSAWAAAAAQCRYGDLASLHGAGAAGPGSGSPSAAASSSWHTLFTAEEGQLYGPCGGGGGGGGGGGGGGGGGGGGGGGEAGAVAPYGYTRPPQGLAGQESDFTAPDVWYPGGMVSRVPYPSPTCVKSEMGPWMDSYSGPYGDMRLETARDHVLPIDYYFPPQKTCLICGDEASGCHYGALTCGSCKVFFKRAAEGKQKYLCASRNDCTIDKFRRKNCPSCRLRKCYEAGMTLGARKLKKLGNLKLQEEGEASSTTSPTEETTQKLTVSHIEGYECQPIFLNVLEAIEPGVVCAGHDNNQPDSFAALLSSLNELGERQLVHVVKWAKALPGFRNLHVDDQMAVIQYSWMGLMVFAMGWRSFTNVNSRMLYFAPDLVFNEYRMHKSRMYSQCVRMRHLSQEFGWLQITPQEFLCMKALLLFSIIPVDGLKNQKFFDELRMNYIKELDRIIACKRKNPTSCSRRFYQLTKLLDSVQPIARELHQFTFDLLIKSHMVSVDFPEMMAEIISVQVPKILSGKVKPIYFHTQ
The assay can be described thus: biochemical.
Description: Displacement of [3H]mibolerone from human androgen receptor expressed in CHOK1 cells

The target of assay [2] is T2, Androgen receptor (Homo sapiens) (UniProt P10275).
T2 sequence (whole entry): T1 sequence (P10275 whole entry)
Particulars: HeLa.
Description: Agonist activity at human androgen receptor expressed in HeLa cells assessed as five times increase in transcriptional activity by reporter gene assay

The target of assay [3] is T1, Androgen receptor.
Description: Antagonist activity at human androgen receptor expressed in HeLa cells assessed as inhibition of dihydrotestosterone induced transcriptional activity by reporter gene assay
Assay [4] concerns Mus musculus. The assay can be described thus: Inhibition of testosterone propionate-stimulated seminal vesicle weight gain in castrated mouse at 3 mg/body, sc. Format: functional.
Assay [5] relates to Mus musculus. The assay can be described thus: Inhibition of testosterone propionate-stimulated seminal vesicle weight gain in castrated mouse at 1 mg/body, sc. Format: functional.
Assay [6] has as its system Mus musculus. The assay can be described thus: Inhibition of testosterone propionate-stimulated seminal vesicle weight gain in castrated mouse at 10 mg/body, sc. Format: functional.

The term IC50 denotes the concentration that gives 50% inhibition. Take `C[C@]12CCC(=O)C=C1C[C@@H](CCCc1ccc(OCCC(=O)O)cc1)[C@@H]1[C@@H]2CC[C@@]2(C)[C@H]1CC[C@]2(C)O`: the IC50 on Androgen receptor [1] was 0.3 µM; on Androgen receptor [3], 0.17 µM. This compound had an FI5 in assay [2] of 2500 nM.
The corresponding values for `C[C@]12CCC(=O)C=C1C[C@@H](CCCCc1ccc(OCCCCC(=O)O)cc1)[C@@H]1[C@@H]2CC[C@@]2(C)[C@H]1CC[C@]2(C)O` are 0.096 µM, 0.25 µM and 2000 nM.
The corresponding values for `C[C@]12CCC(=O)C=C1C[C@@H](CCCCCCCCCC(=O)O)[C@@H]1[C@@H]2CC[C@@]2(C)[C@H]1CC[C@]2(C)O` are 0.6 µM, 2 µM and greater than 10000 nM.
Consider `C[C@]12CCC(=O)C=C1C[C@@H](CCCCc1cccc(OCCCC(=O)O)c1)[C@@H]1[C@@H]2CC[C@@]2(C)[C@H]1CC[C@]2(C)O`, for which the IC50 was found to be 0.67 µM at Androgen receptor [1] and 0.92 µM against Androgen receptor [3]. In assay [2], this compound showed an FI5 greater than 10000 nM.
With `CN(C)C(=O)CCCCCCC[C@@H]1C[C@H]2CC(=O)CC[C@]2(C)[C@H]2CC[C@]3(C)[C@@H](O)CC[C@H]3[C@H]12`, the 50% inhibitory concentration (IC50) was 0.26 µM against Androgen receptor [1] and 0.19 µM at Androgen receptor [3]. Also, in assay [2], the FI5 is greater than 10000 nM.
For `C[C@]12CCC(=O)C=C1C[C@@H](CCCCc1cccc(OCCCCCC(=O)O)c1)[C@@H]1[C@@H]2CC[C@@]2(C)[C@H]1CC[C@]2(C)O`, in that order: 0.12 µM, 0.53 µM and greater than 10000 nM.
Take `C[C@]12CCC(=O)C=C1C[C@@H](CCCc1ccc(OCCCCC(=O)O)cc1)[C@@H]1[C@@H]2CC[C@@]2(C)[C@H]1CC[C@]2(C)O`: the results for the IC50 at Androgen receptor [1] and against Androgen receptor [3] were 0.66 µM and 0.3 µM, respectively. The FI5 in assay [2] was 3200 nM.
The corresponding values for `C[C@]12CCC(=O)C[C@@H]1C[C@@H](CCCCCCCCC(CCCC(F)(F)C(F)(F)F)C(=O)O)[C@@H]1[C@@H]2CC[C@]2(C)[C@@H](O)CC[C@@H]12` (stereo not given in full) are 0.41 µM, greater than 10 µM and 13 nM.
Compound `C[C@]12CCC(=O)C=C1C[C@@H](CCCCc1ccc(OCCCC(=O)O)cc1)[C@@H]1[C@@H]2CC[C@@]2(C)[C@H]1CC[C@]2(C)O` gave an FI5 in assay [2] of 170 nM. On Androgen receptor [3], 0.85 µM corresponded to half-maximal inhibition (IC50).
For orientation: Inhibition means the relative decrease from the control value, in per cent. Higher therefore signals a strong effect. For the compound `CC(C)(O)C(=O)Nc1ccc([N+](=O)[O-])c(C(F)(F)F)c1` [HYDROXYFLUTAMIDE], the Inhibition is listed as 0.8% in the assay on Mus musculus [4], 6.7% with Mus musculus [5] and 6.4% in the assay on Mus musculus [6]. In assay [2], this compound showed an FI5 of 1000 nM.
On to `C[C@]12CCC(=O)C=C1C[C@@H](CCCCc1cccc(OCCCCC(=O)O)c1)[C@@H]1[C@@H]2CC[C@@]2(C)[C@H]1CC[C@]2(C)O`, for which the IC50 at Androgen receptor [1] worked out at 0.35 µM. Also, the FI5 in assay [2] was greater than 10000 nM.
For `C[C@]12CCC(=O)C=C1C[C@@H](CCCc1ccc(OCCCC(=O)O)cc1)[C@@H]1[C@@H]2CC[C@@]2(C)[C@H]1CC[C@]2(C)O`, the IC50 is 0.43 µM against Androgen receptor [1] and 0.66 µM against Androgen receptor [3]. Also, the FI5 in assay [2] was greater than 10000 nM.
`C[C@]12CCC(=O)C=C1C[C@@H](CCCCc1ccc(OCCCCCC(=O)O)cc1)[C@@H]1[C@@H]2CC[C@@]2(C)[C@H]1CC[C@]2(C)O` showed an FI5 in assay [2] of 100 nM. At Androgen receptor [3], it took 0.42 µM to reach half-maximal inhibition (IC50).
On to `C[C@]12CCC(=O)C[C@@H]1C[C@@H](CCCCCCCC(=O)O)[C@@H]1[C@@H]2CC[C@]2(C)[C@@H](O)CC[C@@H]12`, for which the 50% inhibitory concentration (IC50) against Androgen receptor [1] amounted to 0.66 µM; against Androgen receptor [3], 0.73 µM. For the same compound, the FI5 in assay [2] came to 110 nM.
The corresponding values for `C[C@]12CCC(=O)C[C@@H]1C[C@@H](CCCCCCCCCC(=O)O)[C@@H]1[C@@H]2CC[C@]2(C)[C@@H](O)CC[C@@H]12` are 0.35 µM, 0.92 µM and 120 nM.
Consider `C[C@]12CCC(=O)C=C1C[C@@H](CCCc1cccc(OCCCC(=O)O)c1)[C@@H]1[C@@H]2CC[C@@]2(C)[C@H]1CC[C@]2(C)O`, for which the FI5 in assay [2] was 1500 nM. At Androgen receptor [3], this compound yielded an IC50 of 5.8 µM.
